Measurements as given in patent US20260256792A1, “TREATMENT OF CHRONIC SPONTANEOUS URTICARIA BY ADMINISTERING (R)-2-[3-[4-AMINO-3-(2-FLUORO-4-PHENOXY-PHENYL)PYRAZOLO[3,4-D]PYRIMIDIN-1-YL]PIPERIDINE-1-CARBONYL]-4-METHYL-4-[4-(OXETAN-3-YL)PIPERAZIN-1-YL]PENT-2-ENENITRILE” (priority 2023, published 2026).

Tested on: angioedema in CSU patients
Assay: Phase 2 CSU study: angioedema activity score over 7 days (AAS7)
Assay type: in vivo, human
Settings: 400 mg QPM; for AAS7 = 0, Non-responder n (%) / AAS7 = 0, OR (95% CI) for rilzabrutinib vs. placebo / AAS7 = 0, RRD (%) for rilzabrutinib vs. placebo (95% CI) / AAS7 Post-baseline Mean (SD) / Participants with AAS7 = 0, Responder n (%) / AAS7 % Change difference for rilzabrutinib vs. placebo LS Mean (95% CI) / AAS7 % Change from baseline LS Mean (SE) / AAS7 Change difference for rilzabrutinib vs. placebo LS Mean (95% CI) / AAS7 Change from baseline LS Mean (SE): angioedema at baseline; for Non-responder n (%), AAS7 = 0 / OR (95% CI) for rilzabrutinib vs. placebo, AAS7 = 0 / RRD (%) for rilzabrutinib vs. placebo (95% CI), AAS7 = 0 / Responder n (%), AAS7 = 0: outlier removed
Description: The study comprises a 12 week, randomized, double-blind, placebo-controlled, multi-center, dose-ranging efficacy and safety phase, followed by a 40 week open label extension (OLE) phase (see FIG. 1). The study consists of three phases and an optional OLE phase. […] The weekly angioedema activity score (AAS7) was proposed as a tertiary endpoint. […] Patients were to complete the AAS using the e-diary. The e-diary was to be used once daily on the same time of each day recording of participant's answers to the angioedema activity score over 7 days (AAS7) questionnaire.

CC(C)(C=C(C#N)C(=O)N1CCC[C@@H](n2nc(-c3ccc(Oc4ccccc4)cc3F)c3c(N)ncnc32)C1)N1CCN(C2COC2)CC1 [rilzabrutinib, (R)-2-[3-[4-amino-3-(2-fluoro-4-phenoxy-phenyl)pyrazolo[3,4-d]pyrimidin-1-yl]piperidine-1-carbonyl]-4-methyl-4-[4-(oxetan-3-yl)piperazin-1-yl]pent-2-enenitrile]
AAS7 = 0, Non-responder n (%) (Week 4, omalizumab-naïve): 21 (77.8) n (%) | AAS7 = 0, OR (95% CI) for rilzabrutinib vs. placebo (Week 4, omalizumab-naïve): 0.869 | AAS7 = 0, RRD (%) for rilzabrutinib vs. placebo (95% CI) (Week 4, omalizumab-naïve): −2.4 % | AAS7 Post-baseline Mean (SD) (Week 4, omalizumab-naïve): 29.55 (20.68) | Participants with AAS7 = 0, Responder n (%) (Week 4, omalizumab-naïve): 6 (22.2) n (%) | AAS7 % Change difference for rilzabrutinib vs. placebo LS Mean (95% CI) (Week 5, ITT): −0.88 (−26.37, 24.61) % | AAS7 % Change from baseline LS Mean (SE) (Week 5, ITT): −54.71 (9.56) % | AAS7 Change difference for rilzabrutinib vs. placebo LS Mean (95% CI) (Week 5, ITT): 1.56 (−9.31, 12.42) | AAS7 Change from baseline LS Mean (SE) (Week 5, ITT): −28.04 (4.08) | AAS7 Post-baseline Mean (SD) (Week 5, ITT): 25.01 (22.48) | Non-responder n (%), AAS7 = 0 (Week 5, omalizumab-naïve): 21 (56.8) n (%) | OR (95% CI) for rilzabrutinib vs. placebo, AAS7 = 0 (Week 5, omalizumab-naïve): 0.872 | RRD (%) for rilzabrutinib vs. placebo (95% CI), AAS7 = 0 (Week 5, omalizumab-naïve): −3.4 % | Responder n (%), AAS7 = 0 (Week 5, omalizumab-naïve): 16 (43.2) n (%) | AAS7 % Change difference for rilzabrutinib vs. placebo LS Mean (95% CI) (Week 5, omalizumab-naïve): −1.04 (−28.01, 25.93) % | AAS7 % Change from baseline LS Mean (SE) (Week 5, omalizumab-naïve): −55.66 (9.83) % | AAS7 = 0, Non-responder n (%) (Week 5, omalizumab-naïve): 19 (70.4) n (%) | AAS7 = 0, OR (95% CI) for rilzabrutinib vs. placebo (Week 5, omalizumab-naïve): 1.079 | AAS7 = 0, RRD (%) for rilzabrutinib vs. placebo (95% CI) (Week 5, omalizumab-naïve): 1.6 % | AAS7 Post-baseline Mean (SD) (Week 5, omalizumab-naïve): 24.55 (22.80) | Participants with AAS7 = 0, Responder n (%) (Week 5, omalizumab-naïve): 8 (29.6) n (%) | AAS7 % Change difference for rilzabrutinib vs. placebo LS Mean (95% CI) (Week 6, ITT): 1.19 (−25.36, 27.75) % | AAS7 % Change from baseline LS Mean (SE) (Week 6, ITT): −46.12 (9.92) % | AAS7 Change from baseline LS Mean (SE) (Week 6, ITT): −25.61 (4.32) | AAS7 Post-baseline Mean (SD) (Week 6, ITT): 27.97 (22.56) | Non-responder n (%), AAS7 = 0 (Week 6, omalizumab-naïve): 24 (64.9) n (%) | OR (95% CI) for rilzabrutinib vs. placebo, AAS7 = 0 (Week 6, omalizumab-naïve): 0.606 | RRD (%) for rilzabrutinib vs. placebo (95% CI), AAS7 = 0 (Week 6, omalizumab-naïve): −11.4 % | Responder n (%), AAS7 = 0 (Week 6, omalizumab-naïve): 13 (35.1) n (%) | AAS7 % Change difference for rilzabrutinib vs. placebo LS Mean (95% CI) (Week 6, omalizumab-naïve): 2.62 (−26.14, 31.38) % | AAS7 = 0, Non-responder n (%) (Week 6, omalizumab-naïve): 23 (85.2) n (%) | AAS7 = 0, OR (95% CI) for rilzabrutinib vs. placebo (Week 6, omalizumab-naïve): 0.437 | AAS7 = 0, RRD (%) for rilzabrutinib vs. placebo (95% CI) (Week 6, omalizumab-naïve): −13.0 % | AAS7 Post-baseline Mean (SD) (Week 6, omalizumab-naïve): 28.26 (23.00) | Participants with AAS7 = 0, Responder n (%) (Week 6, omalizumab-naïve): 4 (14.8) n (%) | AAS7 % Change difference for rilzabrutinib vs. placebo LS Mean (95% CI) (Week 7, ITT): 16.32 (−13.52, 46.16) % | AAS7 Change difference for rilzabrutinib vs. placebo LS Mean (95% CI) (Week 7, ITT): 4.35 (−7.06, 15.76) | AAS7 Change from baseline LS Mean (SE) (Week 7, ITT): −22.95 (4.29) | AAS7 Post-baseline Mean (SD) (Week 7, ITT): 31.05 (21.43) | Non-responder n (%), AAS7 = 0 (Week 7, omalizumab-naïve): 24 (64.9) n (%) | OR (95% CI) for rilzabrutinib vs. placebo, AAS7 = 0 (Week 7, omalizumab-naïve): 0.611 | RRD (%) for rilzabrutinib vs. placebo (95% CI), AAS7 = 0 (Week 7, omalizumab-naïve): −11.8 % | Responder n (%), AAS7 = 0 (Week 7, omalizumab-naïve): 13 (35.1) n (%) | AAS7 % Change difference for rilzabrutinib vs. placebo LS Mean (95% CI) (Week 7, omalizumab-naïve): 19.61 (−12.44, 51.65) % | AAS7 = 0, OR (95% CI) for rilzabrutinib vs. placebo (Week 7, omalizumab-naïve): 0.200 | AAS7 = 0, RRD (%) for rilzabrutinib vs. placebo (95% CI) (Week 7, omalizumab-naïve): −23.0 % | AAS7 Post-baseline Mean (SD) (Week 7, omalizumab-naïve): 31.88 (21.51) | AAS7 % Change difference for rilzabrutinib vs. placebo LS Mean (95% CI) (Week 8, ITT): −2.51 (−32.23, 27.22) % | AAS7 Change difference for rilzabrutinib vs. placebo LS Mean (95% CI) (Week 8, ITT): −1.74 (−12.55, 9.06) | AAS7 Change from baseline LS Mean (SE) (Week 8, ITT): −30.07 (4.07) | AAS7 Post-baseline Mean (SD) (Week 8, ITT): 24.69 (22.82) | Non-responder n (%), AAS7 = 0 (Week 8, omalizumab-naïve): 20 (54.1) n (%) | OR (95% CI) for rilzabrutinib vs. placebo, AAS7 = 0 (Week 8, omalizumab-naïve): 1.185 | RRD (%) for rilzabrutinib vs. placebo (95% CI), AAS7 = 0 (Week 8, omalizumab-naïve): 4.2 % | Responder n (%), AAS7 = 0 (Week 8, omalizumab-naïve): 17 (45.9) n (%) | AAS7 % Change difference for rilzabrutinib vs. placebo LS Mean (95% CI) (Week 8, omalizumab-naïve): −4.14 (−36.36, 28.09) % | AAS7 = 0, Non-responder n (%) (Week 8, omalizumab-naïve): 20 (74.1) n (%) | AAS7 = 0, OR (95% CI) for rilzabrutinib vs. placebo (Week 8, omalizumab-naïve): 0.929 | AAS7 = 0, RRD (%) for rilzabrutinib vs. placebo (95% CI) (Week 8, omalizumab-naïve): −1.3 %
